Measurements from ChEMBL document CHEMBL3885881, “DrugMatrix”.

Species: Rattus norvegicus
Assay: DrugMatrix - Regimen: Daily Repeat
Type: toxicity, organism-based, Sprague-Dawley
Set-up: regimen Daily Repeat, gender Male, age 6-8 weeks
Details: in vivo, po, route oral GAVAGE, vehicle 100 % WATER; for ABSOLUTE BASOPHIL / ABSOLUTE EOSINOPHIL / ABSOLUTE LYMPHOCYTE / ABSOLUTE MONOCYTE / ABSOLUTE SEGMENTED NEUTROPHIL / BASOPHIL / EOSINOPHIL / ERYTHROCYTE COUNT / HEMATOCRIT / HEMOGLOBIN / LEUKOCYTE COUNT / LYMPHOCYTE / MEAN CORPUSCULAR HEMOGLOBIN / MEAN CORPUSCULAR HEMOGLOBIN CONCENTRATION / MEAN CORPUSCULAR VOLUME / MONOCYTE / NEUTROPHIL / NUCLEATED RED BLOOD CELLS / PLATELET COUNT: tissue Blood; for ALANINE AMINOTRANSFERASE / ALBUMIN / ALKALINE PHOSPHATASE / ASPARTATE AMINOTRANSFERASE / BLOOD UREA NITROGEN / CARBON DIOXIDE / CHLORIDE / CHOLESTEROL / CREATINE PHOSPHOKINASE / CREATININE / GLUCOSE / LACTATE DEHYDROGENASE / LIPASE / PHOSPHORUS / POTASSIUM / SODIUM / TOTAL BILIRUBIN / TOTAL PROTEIN / URIC ACID: tissue Plasma
[1] = 0 mg/kg, 72 h, dose level Control, time 3 day
[2] = 0 mg/kg, 120 h, dose level Control, time 5 day
[3] = 175 mg/kg, 72 h, dose level High, time 3 day

O=c1[nH]c(=O)n(C2CCCO2)cc1F (centres undefined) [TEGAFUR]
ABSOLUTE BASOPHIL [1]: 0 CELLS/uL | ABSOLUTE EOSINOPHIL [1]: 168.33 CELLS/uL | ABSOLUTE LYMPHOCYTE [1]: 13654.17 CELLS/uL | ABSOLUTE MONOCYTE [1]: 121 CELLS/uL | ABSOLUTE SEGMENTED NEUTROPHIL [1]: 1223.17 CELLS/uL | BASOPHIL [1]: 0% | EOSINOPHIL [1]: 1.17% | ERYTHROCYTE COUNT [1]: 5.7 x10E6/uL | HEMATOCRIT [1]: 35.33% | HEMOGLOBIN [1]: 13.97 G/DL | LEUKOCYTE COUNT [1]: 15.17 x10E3/uL | LYMPHOCYTE [1]: 89.83% | MEAN CORPUSCULAR HEMOGLOBIN [1]: 24.53 pg | MEAN CORPUSCULAR HEMOGLOBIN CONCENTRATION [1]: 39.53 G/DL | MEAN CORPUSCULAR VOLUME [1]: 62.05 fL | MONOCYTE [1]: 0.83% | NEUTROPHIL [1]: 8.17% | NUCLEATED RED BLOOD CELLS [1]: 0 /100WBC | PLATELET COUNT [1]: 1312.17 x10E3/uL | ALANINE AMINOTRANSFERASE [1]: 50.83 u/L | ALBUMIN [1]: 4.18 G/DL | ALKALINE PHOSPHATASE [1]: 334.17 u/L | ASPARTATE AMINOTRANSFERASE [1]: 82.17 u/L | BLOOD UREA NITROGEN [1]: 15.5 mg/dL | CARBON DIOXIDE [1]: 31.33 mmol/L | CHLORIDE [1]: 99.83 MEQ/L | CHOLESTEROL [1]: 76 mg/dL | CREATINE PHOSPHOKINASE [1]: 272.17 u/L | CREATININE [1]: 0.17 mg/dL | GLUCOSE [1]: 143 mg/dL | LACTATE DEHYDROGENASE [1]: 157.5 u/L | LIPASE [1]: 9.33 u/L | PHOSPHORUS [1]: 12.18 mg/dL | POTASSIUM [1]: 6.78 MEQ/L | SODIUM [1]: 143.9 MEQ/L | TOTAL BILIRUBIN [1]: 0.22 mg/dL | TOTAL PROTEIN [1]: 5.85 G/DL | URIC ACID [1]: 1.7 mg/dL | ABSOLUTE BASOPHIL [2]: 0 CELLS/uL | ABSOLUTE EOSINOPHIL [2]: 0 CELLS/uL | ABSOLUTE LYMPHOCYTE [2]: 13539.33 CELLS/uL | ABSOLUTE MONOCYTE [2]: 177.67 CELLS/uL | ABSOLUTE SEGMENTED NEUTROPHIL [2]: 2116.33 CELLS/uL | BASOPHIL [2]: 0% | EOSINOPHIL [2]: 0% | ERYTHROCYTE COUNT [2]: 5.78 x10E6/uL | HEMATOCRIT [2]: 36.13% | HEMOGLOBIN [2]: 14.1 G/DL | LEUKOCYTE COUNT [2]: 15.83 x10E3/uL | LYMPHOCYTE [2]: 85.83% | MEAN CORPUSCULAR HEMOGLOBIN [2]: 24.42 pg | MEAN CORPUSCULAR HEMOGLOBIN CONCENTRATION [2]: 39 G/DL | MEAN CORPUSCULAR VOLUME [2]: 62.55 fL | MONOCYTE [2]: 0.83% | NEUTROPHIL [2]: 13.33% | NUCLEATED RED BLOOD CELLS [2]: 0.17 /100WBC | PLATELET COUNT [2]: 1281.17 x10E3/uL | ALANINE AMINOTRANSFERASE [2]: 55.5 u/L | ALBUMIN [2]: 4.22 G/DL | ALKALINE PHOSPHATASE [2]: 345 u/L | ASPARTATE AMINOTRANSFERASE [2]: 92.5 u/L | BLOOD UREA NITROGEN [2]: 16.5 mg/dL | CARBON DIOXIDE [2]: 26.5 mmol/L | CHLORIDE [2]: 103.5 MEQ/L | CHOLESTEROL [2]: 78.5 mg/dL | CREATINE PHOSPHOKINASE [2]: 381.5 u/L | CREATININE [2]: 0.21 mg/dL | GLUCOSE [2]: 161.83 mg/dL | LACTATE DEHYDROGENASE [2]: 487.5 u/L | LIPASE [2]: 10.17 u/L | PHOSPHORUS [2]: 11.83 mg/dL | POTASSIUM [2]: 6.4 MEQ/L | SODIUM [2]: 146.95 MEQ/L | TOTAL BILIRUBIN [2]: 0.22 mg/dL | TOTAL PROTEIN [2]: 6.22 G/DL | URIC ACID [2]: 1.83 mg/dL | ABSOLUTE BASOPHIL [3]: 0 CELLS/uL | ABSOLUTE EOSINOPHIL [3]: 0 CELLS/uL | ABSOLUTE LYMPHOCYTE [3]: 11530.33 CELLS/uL | ABSOLUTE MONOCYTE [3]: 235 CELLS/uL | ABSOLUTE SEGMENTED NEUTROPHIL [3]: 434.67 CELLS/uL | BASOPHIL [3]: 0% | EOSINOPHIL [3]: 0% | ERYTHROCYTE COUNT [3]: 5.62 x10E6/uL | HEMATOCRIT [3]: 35% | HEMOGLOBIN [3]: 13.93 G/DL | LEUKOCYTE COUNT [3]: 12.2 x10E3/uL | LYMPHOCYTE [3]: 94.33% | MEAN CORPUSCULAR HEMOGLOBIN [3]: 24.87 pg | MEAN CORPUSCULAR HEMOGLOBIN CONCENTRATION [3]: 39.83 G/DL | MEAN CORPUSCULAR VOLUME [3]: 62.43 fL | MONOCYTE [3]: 2% | NEUTROPHIL [3]: 3.67% | NUCLEATED RED BLOOD CELLS [3]: 0 /100WBC | PLATELET COUNT [3]: 1245 x10E3/uL | ALANINE AMINOTRANSFERASE [3]: 377 u/L | ALBUMIN [3]: 4.23 G/DL | ALKALINE PHOSPHATASE [3]: 316.67 u/L | ASPARTATE AMINOTRANSFERASE [3]: 623.67 u/L | BLOOD UREA NITROGEN [3]: 18 mg/dL | CARBON DIOXIDE [3]: 25.33 mmol/L | CHLORIDE [3]: 98 MEQ/L | CHOLESTEROL [3]: 59.33 mg/dL | CREATINE PHOSPHOKINASE [3]: 3619.67 u/L | CREATININE [3]: 0.24 mg/dL | GLUCOSE [3]: 187.67 mg/dL | LACTATE DEHYDROGENASE [3]: 3501.33 u/L | LIPASE [3]: 13.33 u/L | PHOSPHORUS [3]: 13.57 mg/dL | POTASSIUM [3]: 9.03 MEQ/L | SODIUM [3]: 141.23 MEQ/L | TOTAL BILIRUBIN [3]: 0.23 mg/dL | TOTAL PROTEIN [3]: 5.9 G/DL | URIC ACID [3]: 2.9 mg/dL
